The subject of assay [1] is HIV-1 JR-CSF. The assay is described as follows: Established HIV-1 infection of CD4+ T-lymphocytes, single versus daily drug addition, p24 ELISA. In kind it is cell-based. The note with it: 2 μM three days post-infection then daily 0.5 μM; after fifteen days. The protocol: CD4+ T-lymphocytes (A) and Huh7.5.1 cells (B) (0.5 x 10^6 cells) (triplicates) were exposed to HIV-1 JR-CSF and HCV JFH-1. Drugs (2 μM) were added 3 h pre-viral exposure (top panels) or 3 days post-viral exposure (bottom panels). Viral replications were monitored by HIV-1 p24 and HCV core ELISAs. C. CD4+ T-lymphocytes (0.5 x 10^6 cells) (triplicates) were exposed to HIV-1 JR-CSF. Drugs were initially added 3 days post-viral exposure (2 μM) and then daily (0.5 μM). Viral replications were monitored by HIV-1 p24 and HCV core ELISAs. […] D. Model for the HIV-1/HCV co-culture system.

For assay [2], the system named is HCV-mediated double-membrane vesicle (DMV) formation. The assay is described as follows: HCV NS3-NS5B-mediated double membrane vesicle (DMV) formation in T7/Huh7.5.1 cells, EM. It is filed as cell-based, human. The conditions noted are these: for DMV number: T7/Huh7.5.1 cells, pTMI (NS3-NS5B), DMSO control 365 +/- 18. The protocol: HCV-mediated DMV formation studies were conducted as we described recently using the pTM1(NS3-NS5B) plasmid and the T7/Huh7.5.1 cells developed by the Tai lab.
We then investigated the mechanism by which CPI-431-32 inhibits HCV replication. HCV is well known for its ability to reshape intracellular membranes to optimize RNA synthesis, especially by re-organizing the ER membrane close to the nucleus—the so-called membranous web (MW). […] We and others recently obtained evidence that the formation of DMVs highly depends on both CypA and HCV NS5A [60, 71, 72]. We thus asked whether CPI-431-32 inhibits HCV replication by preventing the creation of DMVs. To test this hypothesis, we took advantage of a T7 promoter driven JFH-1 NS3-NS5B DNA plasmid (pTM1(NS3-5B)) developed by the Tai lab that permits expression of NS3, NS4A, NS4B, NS5A and NS5B upon HCV polyprotein processing as well as viral RNA synthesis when transfected in T7 RNA polymerase expressing Huh7.5.1 cells (T7/Huh7.5.1 cells). Importantly, the expression of the HCV NS3-NS5B polyprotein suffices to create both the MV and DMVs independently of viral replication. All controls were presented previously. As we and others recently reported, NS3-5B expression mediates the formation of a significant number of DMVs in DMSO-treated cells (Fig 5).
Fig 5 CPI-431-32 blocks HCV-mediated double-membrane vesicle (DMV) formation. T7 polymerase expressing Huh7.5.1 cells were transfected in triplicates with JFH-1 NS3-NS5B plasmid in the presence of DMSO or increasing concentrations of CPI-431-32 and analyzed by EM as well as by Image J and ITEM software for DMVs quantification as described previously. Illustrating EM images of DMVs are presented with an amplification of 25,000x. Data are representative of two independent experiments. TEXT PRINTED IN THE PICTURE: DMSO: DMV number: 0 (Cells: T7/Huh7.5.1; HCV Plasmids: –); DMV number: 365 +/- 18 (Cells: T7/Huh7.5.1; HCV Plasmids: pTMI (NS3-NS5B)) | CPI-431-32: DMV number: 1 +/- 0 (2 μM; Cells: T7/Huh7.5.1; HCV Plasmids: pTMI (NS3-NS5B)); DMV number: 8 +/- 2 (0.5 μM; Cells: T7/Huh7.5.1; HCV Plasmids: pTMI (NS3-NS5B)); DMV number: 61 +/- 6 (0.125 μM; Cells: T7/Huh7.5.1; HCV Plasmids: pTMI (NS3-NS5B)); DMV number: 312 +/- 45 (0.03125 μM; Cells: T7/Huh7.5.1; HCV Plasmids: pTMI (NS3-NS5B))

Non-standard residues stand in square brackets, D forms with d. Residues, ends and D or L forms follow the SMILES beside them. NMeThr(4R-Me,4-(CH2)6NHAc) = CN[C@H](C(=O)O)[C@H](O)[C@H](C)CCCCCCNC(C)=O; NMeL = CN[C@@H](CC(C)C)C(=O)O; NMeV = CN[C@H](C(=O)O)C(C)C; dNMeA = CN[C@H](C)C(=O)O; Abu = CC[C@H](N)C(=O)O

In the case of `CC[C@@H]1NC(=O)[C@H]([C@H](O)[C@H](C)CCCCCCNC(C)=O)N(C)C(=O)[C@H](C(C)C)N(C)C(=O)[C@H](CC(C)C)N(C)C(=O)[C@H](CC(C)C)N(C)C(=O)[C@@H](C)NC(=O)[C@H](C)NC(=O)[C@H](CC(C)C)N(C)C(=O)[C@H](C(C)C)NC(=O)[C@H](CC(C)C)N(C)C(=O)[C@@H](C)N(C)C1=O` [CPI-431-32] (cyclo(A[dA][NMeL][NMeL][NMeV][NMeThr(4R-Me,4-(CH2)6NHAc)][Abu][dNMeA][NMeL]V[NMeL])), in assay [1], the “Effect on HIV-1 replication (in words)” value is “almost totally repressed HIV-1 replication”. Further, the DMV number in assay [2] (0.03125 μM) is on record as 312 +/- 45; in assay [2] (0.125 μM) it was 61 +/- 6; in assay [2] (0.5 μM) it was 8 +/- 2; in assay [2] (2 μM) it was 1 +/- 0. Moreover, the “NS3-NS5B-mediated formation of DMVs (in words)” value in assay [2] (compared to DMSO control) was “profoundly decreased”.

Source of the values: article PMC4532424, “The Novel Cyclophilin Inhibitor CPI-431-32 Concurrently Blocks HCV and HIV-1 Infections via a Similar Mechanism of Action” (PLoS ONE, 2015).
